Tests used:
[1] = test system: RAW 264.7 murine macrophage cell line; assay: suPAR and TNFa secretion from RAW 264.7 cells treated with LN patient sera (ELISA); assay type: cell-based; details: co-treatment LN sera (0.5%) and LA1 (20 uM), 4 hours, vs LN sera alone
Procedure: FIG. 1A illustrates levels of biomarker suPAR secretion from RAW 264.7 cells after 4 hours of treatment with cell culture medium (UT), LA1 (20 uM), LN patient sera (0.5%) in culture medium ([…]), or co-treatment with LN sera (0.5%) and LA1 (20 uM). […] FIG. 1B illustrates levels of biomarker TNFa secretion from RAW 264.7 cells after 4 hours of treatment with cell culture medium (UT), LA1 (20 uM), LN patient sera (0.5%) in culture medium ([…]), or co-treatment with LN sera (0.5%) and LA1 (20 uM). […] Myeloid cells from RAW 264.7 murine macrophage cell line were used to measure the concentration of pro-inflammatory biomarkers, soluble uPAR (suPAR) and TNFa, in the presence of lupus nephritis (LN) sera and LA1. The levels of pro-inflammatory biomarkers were measured in the supernatant of untreated cells, cells treated with LA1, cells treated with sera from patients with lupus nephritis (LN), and cells co-treated with LN sera and LA1. The concentrations of various pro-inflammatory biomarkers in cell supernatant were measured 4 hours after treatment using ELISA.

[2] = test system: BMDMs from C57BL/6 wild type mice (WT); assay: Biomarker secretion from IMQ-treated bone marrow derived macrophages of wild type mice; assay type: cell-based; details: WT cells, IMQ (20 ug/mL) and LA1 (20 uM) co-treatment, 4 hours
Procedure: (§1) FIG. 7A illustrates levels of biomarker IL-6 secretion in bone marrow derived macrophages (BMDMs) from C57BL/6 wild type (WT) mice, mice with global deletion of CD11b (KO), or C57BL/6 mice expressing CD11b with a point mutation (KI), the macrophages treated for 4 hours with vehicle DMSO (UT), LA1 (20 uM), IMQ (20 ug/mL), or IMQ and LA1 co-treatment. Bars show mean with SD (N=3) (*P<0.05, **P<0.01, ***P<0.001, ****P<0.0001).
as §1, with “7B” for “7A”, “IL-1b” for “IL-6”
as §1, with “7C” for “7A”, “suPAR” for “IL-6”
as §1, with “7D” for “7A”, “IFNb” for “IL-6”
(§2) Bone marrow derived macrophages (BMDMs) from C57BL/6 wild type mice (WT), mice with global deletion of CD11b (KO), and C57BL/6 mice expressing CD11b with a point mutation (KI), as described previously (Martinez et al., 2020) were used to evaluate the effect of pharmacologic activation of CD11b by LA1 or genetic activation of CD11b on TLR-pathway dependent biomarkers. BMDMs from WT, KO, and KI mice were left untreated, treated with LA1, treated with IMQ, or co-treated with LA1 and IMQ and levels of biomarkers IL-1b, suPAR, IL-6 and IFN-b were measured 4 hours after treatment.

[3] = test system: BMDMs from mice with global deletion of CD11b (KO); assay: Biomarker secretion from IMQ-treated bone marrow derived macrophages of CD11b KO mice; assay type: cell-based; details: CD11b KO cells, IMQ (20 ug/mL) and LA1 (20 uM) co-treatment, 4 hours
Procedure: as §1
as §1, with “7B” for “7A”, “IL-1b” for “IL-6”
as §1, with “7C” for “7A”, “suPAR” for “IL-6”
as §1, with “7D” for “7A”, “IFNb” for “IL-6”
as §2

[4] = test system: LPS-treated wild type C57BL/6 mice; assay: Serum IL-6 in LPS-treated mice, oral LA1 dose response; assay type: in vivo; details: 4 hours
Procedure: FIG. 11 illustrates the concentration of biomarker IL-6 in wild type mice and wild type mice co-treated with various dose amounts of LPS and LA1 (0, 2, 10, 30, or 60 mg/kg). Each dot represents a unique sample. Bars show mean +/−SEM (n=4).
Administration of LPS to wild type C57BL/6 mice (WT) results in rapid elevation of pro-inflammatory mediators, such as IL-6, in murine sera. WT mice treated with LPS were used to study the dose-responsive efficacy of LA1 in reducing inflammatory cytokine levels in vivo. A single dose of LA 1 was orally administered to mice co-administered LPS. After 4 hours, sera was collected and used for ELISA.

[5] = test system: BMDMs from C57BL/6 mice expressing CD11b with a point mutation (KI); assay: Biomarker secretion from IMQ-treated bone marrow derived macrophages of CD11b KI mice; assay type: cell-based; details: KI cells (genetically activated CD11b), IMQ (20 ug/mL) and LA1 (20 uM) co-treatment, 4 hours
Procedure: as §1
as §1, with “7B” for “7A”, “IL-1b” for “IL-6”
as §1, with “7C” for “7A”, “suPAR” for “IL-6”
as §1, with “7D” for “7A”, “IFNb” for “IL-6”
as §2

Question: With `O=C(O)c1ccc(-c2ccc(/C=C3\SC(=S)N(Cc4ccccc4)C3=O)o2)cc1` [LA1, (Z)-4-(5-((3-benzyl-4-oxo-2-thioxothiazolidin-5-ylidene)methyl)furan-2-yl)benzoic acid] as the molecule, how does the “level of TNFa in cell supernatant” value [1] read?
Answer: significantly reduced

Question: And the “level of soluble uPAR (suPAR) in cell supernatant” value [1]?
Answer: significantly reduced

Question: And the “level of IFN-b in cell supernatant” value [2]?
Answer: significantly suppressed

Question: What about the “level of IL-1b in cell supernatant” value [2] of the same molecule?
Answer: significantly suppressed

Question: What about the “level of IL-6 in cell supernatant” value [2] of the same molecule?
Answer: significantly suppressed

Question: And the “level of suPAR in cell supernatant” value [2]?
Answer: significantly suppressed

Question: What about the “level of IFN-b in cell supernatant” value [3] of the same molecule?
Answer: no effect

Question: What about the “level of IL-1b in cell supernatant” value [3] of the same molecule?
Answer: no effect

Question: And the “level of IL-6 in cell supernatant” value [3]?
Answer: no effect

Question: What about the “level of suPAR in cell supernatant” value [3] of the same molecule?
Answer: no effect

Question: What about the “serum IL-6 levels versus non-LPS injected WT control” value ([4]; LA1 30 mg/kg oral) of the same molecule?
Answer: no difference

Question: What about the “serum IL-6 levels versus non-LPS injected WT control” value ([4]; LA1 60 mg/kg oral) of the same molecule?
Answer: no difference

Question: And the “IL-6 levels in murine sera” value ([4]; single oral dose of LA1 (2, 10, 30, 60 mg/kg) co-administered with LPS, dose dependent)?
Answer: significantly reduced

Question: What about the “level of IFN-b in cell supernatant” value [5] of the same molecule?
Answer: did not change basal levels

Question: And the “level of IL-1b in cell supernatant” value [5]?
Answer: did not change basal levels

Question: What about the “level of IL-6 in cell supernatant” value [5] of the same molecule?
Answer: did not change basal levels

Question: What about the “level of suPAR in cell supernatant” value [5] of the same molecule?
Answer: did not change basal levels

— patent US20260137662A1, “CD11B AGONISTS FOR TREATMENT OF AUTOIMMUNE DISEASE” (Rush University Medical Center, priority 2022, published 2026)
